Patent US3981999A, “Fish disease treatment” (Dainippon Pharmaceutical Co., Ltd., priority 1973, dated 1976)
In brackets after ≈: the same amount, converted by molar mass.

Key:
[1] = tested on: Aeromonas salmonicida Hara-2; test: MIC by broth serial dilution; assay type: cell-based; details: HARA2, bouillon pH 7.2, 25°C, 48 hours, read-out: MIC
Experimental: (§1) The MIC (minimum inhibitory concentration) of a test compound was determined by the serial dilution method on various pathogenic microorganisms incubated under the following experimental conditions. The lowest concentration at which the visible growth of the organism was inhibited was considered as MIC. […]
(§2) the broth-dilution method bouillon, pH 7.2, except for Vibrio (3% NaCl-bouillon, pH 7.2), Pasteurella (2% NaCl-Brain Heart Infusion, pH 7.3 and Chondrococcus (TY medium, pH 7.3) 1 drop of a bacterial suspension per test tube (100 - 1000 minimal growing units in the medium) 25°C, except for Pseud. anguilliseptica (20°C)
(§3) 48 hours, except for Pseudo. anguilliseptica ([…])

[2] = tested on: Vibrio anguillarum Km-30; test: MIC by broth serial dilution; assay type: cell-based; details: KM30, 3% NaCl-bouillon pH 7.2, 25°C, 48 hours, read-out: MIC
Experimental: as §1, §2, §3

[3] = tested on: Chondrococcus sp K-2; test: MIC by broth serial dilution; assay type: cell-based; details: TY medium pH 7.3, 25°C, 48 hours; read-out: MIC
Experimental: as §1, §2, §3

[4] = tested on: Vibrio anguillarum K-3; test: MIC by broth serial dilution; assay type: cell-based; details: K3, 3% NaCl-bouillon pH 7.2, 25°C, 48 hours, read-out: MIC
Experimental: as §1, §2, §3

[5] = tested on: Chondrococcus sp K-1; test: MIC by broth serial dilution; assay type: cell-based; details: TY medium pH 7.3, 25°C, 48 hours; read-out: MIC
Experimental: as §1, §2, §3

[6] = tested on: Aeromonas liquefaciens Y-62; test: Bathing effect against Aeromonas infection in goldfish; assay type: in vivo; details: for Percent survival: 5 days; for Number of survival after 1 day / Number of survival after 2 days / Number of survival after 3 days / Number of survival after 4 days / Number of survival after 5 days: day 0: 6 fish
Experimental: Goldfish each weighing about 8 g were infected intramuscularly with Aeromonas liquefaciens Y-62 (10^7 germs/fish) under ether anesthesia. The fish were grouped and each group was placed in 6 liters of fresh water (23° to 27°C.) containing PA in the amount indicated in Table 3.
Then, observation was made for the following 5 days. In the same manner, the control group was placed in 6 liters of fresh water without any test compound incorporated in it.

[7] = tested on: eels; test: Oral toxicity in eels; assay type: in vivo, eels (Anguilla Japonica); details: oral 2000 mg/kg, 7 days, 10 eels per group, 27° to 27.5°C
Experimental: A suspension of PA in 0.2% carboxymethylcellulose was orally given to groups each consisting of 10 eels (Anguilla Japonica, about 160 g) and observation was made for the following 7 days. The temperature of the water was kept at 27° to 27.5°C.

[8] = tested on: goldfish; test: Oral toxicity in goldfish; assay type: in vivo; details: 10% in diet (PA 800, AT-1493 955, AT-1557 935, AT-1475 923 mg/kg)
Experimental: A diet containing 10% of each of the test compounds was given orally to groups each consisting of 5 goldfish each weighing 6 to 10 g, and observation was made for the following 7 days. The temperature of the water was maintained at 28°C.

[9] = tested on: Aeromonas liquefaciens Y-62; test: Oral administration to eels after Aeromonas infection; assay type: in vivo, eels (Anguilla Japonica); details: oral 3.1 mg/kg/day at 4 hours after infection and next day; seventh day
Experimental: Groups of eels (Anguilla Japonica, average weight 100 g) (each group consisting of 50 eels) were infected intramuscularly with Aeromonas liquefaciens Y-62 (10^9 germs/fish). A suspension consisting of a diet containing PA was orally administered to the eels at 4 hours after the infection and on the next day, using a catheter, at a dose of 3.1 mg/kg/day.
The temperature of the water was kept at 25° to 26°C. during the entire experimental period.

[10] = tested on: Aeromonas liquefacieus Y-62; test: Oral effect against Aeromonas infection in goldfish; assay type: in vivo; details: for Percent survival: 5 days; for Number of surviving fish after 1 day / Number of surviving fish after 2 days / Number of surviving fish after 3 days / Number of surviving fish after 4 days / Number of surviving fish after 5 days: day 0: PA 10, others 5 fish
Experimental: Goldfish each weighing about 6 - 7 g were given a fish food containing each of the test compounds. After 30 minutes, the fish were infected intramuscularly with Aeromonas liquefacieus Y-62 (about 10^7 germs/fish) under ether anesthesia. […] In the same manner, the control group was given the same fish food without the test compound.

[11] = tested on: Aeromonas liquefaciens Y-62; test: Oral administration to eels starting the day before Aeromonas infection; assay type: in vivo, eels (Anguilla Japonica); details: oral 1.56 mg/kg/day for 2 days starting the day before infection; seventh day
Experimental: Groups of eels (Anguilla Japonica, average weight 100 g) (each group consisting of 50 fish) were infected intramuscularly with Aeromonas liquefaciens Y-62 (10^9 germs/fish). For 2 days starting at the day before infection, a suspension consisting of a diet containing PA was orally administered to the eels using a catheter at a dose of 1.56 mg/kg/day. On the seventh day after the infection, the eels were observed.
During the experimental period, the temperature of the water was maintained at 25° to 26°C.

[12] = Bathing toxicity in goldfish; assay type: in vivo; details: fresh water; goldfish, bathing for 5 days, 27° to 30°C; read-out: LC50 (50% lethal concentration)
Experimental: (§4) Groups of goldfish each weighing 7 to 8 g (each group consisting of 6 goldfish) were placed in 6 liters of fresh water (27° to 30°C.) containing PA in varying concentrations with aeration for 5 days. During this time, observation was made.

[13] = tested on: goldfish; test: Bathing toxicity in goldfish; assay type: in vivo; details: for Mortality: 5 days; for Number of the survival after 1 day / Number of the survival after 2 days / Number of the survival after 3 days / Number of the survival after 4 days / Number of the survival after 5 days: day 0: 6 fish
Experimental: as §4

[14] = 0.03% in diet (PA 2.5, AT-1493 2.5, AT-1557 2.2 mg/kg)
[15] = 0.1% in diet (PA 6.1, AT-1493 7.5, AT-1557 7.6, AT-1475 7.5 mg/kg)

For `CCn1cc(C(=O)O)c(=O)c2cnc(N3CCCC3)nc21` [PA, 5,8-dihydro-2-pyrrolidino-8-ethyl-5-oxopyrido[2,3-d]pyrimidine-6-carboxylic acid], the MIC [1] was 1 µg/mL (≈ 3.47 µM), the MIC [2] was 3 µg/mL (≈ 10.4 µM) and the MIC [3] was 0.3 µg/mL (≈ 1.04 µM). It also gave an MIC [4] of 1 µg/mL (≈ 3.47 µM), an MIC [5] of 0.3 µg/mL (≈ 1.04 µM) and a Percent survival ([6]; bathing conc. 0.5 μg/ml) of 100%. For the same compound, the “Number of survival after 1 day” value ([6]; bathing conc. 0.5 μg/ml) was 6, the “Number of survival after 2 days” value ([6]; bathing conc. 0.5 μg/ml) was 6 and the “Number of survival after 3 days” value ([6]; bathing conc. 0.5 μg/ml) was 6. The “Number of survival after 4 days” value ([6]; bathing conc. 0.5 μg/ml) was 6, the “Number of survival after 5 days” value ([6]; bathing conc. 0.5 μg/ml) was 6 and the Percent survival ([6]; bathing conc. 1 μg/ml) was 100%. The “Number of survival after 1 day” value ([6]; bathing conc. 1 μg/ml) was 6, the “Number of survival after 2 days” value ([6]; bathing conc. 1 μg/ml) was 6 and the “Number of survival after 3 days” value ([6]; bathing conc. 1 μg/ml) was 6. For the same compound, the “Number of survival after 4 days” value ([6]; bathing conc. 1 μg/ml) was 6, the “Number of survival after 5 days” value ([6]; bathing conc. 1 μg/ml) was 6 and the “survival and external appearance” value [7] was “All eels survived without abnormality of their external appearance”. The Mortality ([8]; 7 days) was 0%, the “Number of the survival after 1 day from administration” value ([8]; day 0: 5 fish) was 5 and the “Number of the survival after 2 days from administration” value ([8]; day 0: 5 fish) was 5. The “Number of the survival after 3 days from administration” value ([8]; day 0: 5 fish) was 5, the “Number of the survival after 4 days from administration” value ([8]; day 0: 5 fish) was 5 and the “Number of the survival after 5 days from administration” value ([8]; day 0: 5 fish) was 5. The “Number of the survival after 6 days from administration” value ([8]; day 0: 5 fish) was 5, the “Number of the survival after 7 days from administration” value ([8]; day 0: 5 fish) was 5 and the rate of survival [9] was 100%. For the same compound, the Percent survival [10, 14] was 60%, the “Number of surviving fish after 1 day” value [10, 14] was 10 and the “Number of surviving fish after 2 days” value [10, 14] was 9. For the same compound, the “Number of surviving fish after 3 days” value [10, 14] was 7, the “Number of surviving fish after 4 days” value [10, 14] was 6 and the “Number of surviving fish after 5 days” value [10, 14] was 6. For the same compound, the Percent survival [10, 15] was 100%, the “Number of surviving fish after 1 day” value [10, 15] was 10 and the “Number of surviving fish after 2 days” value [10, 15] was 10. For the same compound, the “Number of surviving fish after 3 days” value [10, 15] was 10, the “Number of surviving fish after 4 days” value [10, 15] was 10 and the “Number of surviving fish after 5 days” value [10, 15] was 10. For the same compound, the eels survived [11] was 80%, the LC50 at 120 h [12] was 10.1 µg/mL (≈ 35.1 µM) and the Mortality ([13]; bathing conc. 4 μg/ml) was 0%. For the same compound, the “Number of the survival after 1 day” value ([13]; bathing conc. 4 μg/ml) was 6, the “Number of the survival after 2 days” value ([13]; bathing conc. 4 μg/ml) was 6 and the “Number of the survival after 3 days” value ([13]; bathing conc. 4 μg/ml) was 6. The “Number of the survival after 4 days” value ([13]; bathing conc. 4 μg/ml) was 6, the “Number of the survival after 5 days” value ([13]; bathing conc. 4 μg/ml) was 6 and the Mortality ([13]; bathing conc. 8 μg/ml) was 20%. The “Number of the survival after 1 day” value ([13]; bathing conc. 8 μg/ml) was 6, the “Number of the survival after 2 days” value ([13]; bathing conc. 8 μg/ml) was 6 and the “Number of the survival after 3 days” value ([13]; bathing conc. 8 μg/ml) was 5. For the same compound, the “Number of the survival after 4 days” value ([13]; bathing conc. 8 μg/ml) was 5, the “Number of the survival after 5 days” value ([13]; bathing conc. 8 μg/ml) was 5 and the Mortality ([13]; bathing conc. 16 μg/ml) was 100%. The “Number of the survival after 1 day” value ([13]; bathing conc. 16 μg/ml) was 6, the “Number of the survival after 2 days” value ([13]; bathing conc. 16 μg/ml) was 6 and the “Number of the survival after 3 days” value ([13]; bathing conc. 16 μg/ml) was 1. For the same compound, the “Number of the survival after 4 days” value ([13]; bathing conc. 16 μg/ml) was 0.
